Reference: US5677419A, “Cyclic vasoactive peptide analogs” (Hoffmann-La Roche Inc., priority 1994, dated 1997)
Where a SMILES comes first, the peptide text is derived from it. Bridges are numbered along the chain shown (N, C = ends). [ ]: non-standard residue; d: D form. Phe(4-NH2) = Nc1ccc(C[C@H](N)C(=O)O)cc1; Phe(4-F) = N[C@@H](Cc1ccc(F)cc1)C(=O)O; 1Nal = N[C@@H](Cc1cccc2ccccc12)C(=O)O; NMeA = CN[C@@H](C)C(=O)O; Nle = CCCC[C@H](N)C(=O)O

Legend:
[1] = tested on: guinea pig tracheal smooth muscle; experiment: Tracheal relaxant activity of VIP analogs on isolated guinea pig tracheal rings; assay type: cell-based; conditions: cumulative concentration response, relaxation as % of maximum response to VIP (10^-6 M=100%), three tissues pooled, linear regression
Procedure, shortened: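 Male guinea pig tracheal rings under 1.5 g resting tension in Krebs at 37° C, 95% O2/5% CO2, isometric tension. Cumulative concentration-response curves; relaxation as % of response to 10^-6 M VIP added at end; three tissues pooled, EC50 by linear regression.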

guinea pigs = experiment: In vivo bronchodilator activity by tracheal instillation against histamine challenge; design: species or system guinea pig; conditions: anesthetized male guinea pigs, inhibition of histamine (i.v.)-induced rise in tracheal pressure
Description: The in vivo bronchodilator activity of VIP and VIP analogs in guinea pigs was assessed by the tracheal instillation route of administration. This technique utilized male guinea pigs (Hartley strain, Charles River) weighing 400-600 g. Animals were anesthetized with urethane (2 g/kg) intraperitoneally and a polyethylene cannula was inserted into the jugular vein for intraveneous drug administration.
The animals were tracheotomized and dosing solutions of distilled water or test compound dissolved in distilled water were administered into the trachea, approximately three-quarters the distance to the carina with a pipette. The concentration of the dosing solution was adjusted to deliver a constant volume of […]. The animals were placed supine for one minute to aid drug delivery to the lung. One minute later, spontaneous breathing was arrested with succinylcholine chloride (1.2 mg/kg) administered intraveneously, and the animals were ventilated with a HARVARD Model 680 small animal respirator set at 40 breaths/min and 4.0 cm^3 stroke volume. The animals were challenged with a maximal constrictory dose of histamine ([…], i.v.) and tracheal pressure (cm of water) was recorded from a STATHAM pressure transducer (P 32 AA).
The change in tracheal pressure was averaged for at least 3 control and 3 drug-treated animals and percent inhibition was calculated. The relative potency of compounds administered by the instillation route was determined by administering various doses of test compound and calculating the median effective dose (ED50 value). The ED50 was determined from log dose-response curves generated by at least 3 doses that caused inhibitory effects between 10% and 90%. The correlation coefficients for the regression line of each compound was always greater than 0.95.
For determination of the time course of inhibition for various compounds, the time between administration of compound and challenge with histamine was varied. The time course of activity was calculated as the time when inhibition decreased to 40%.
The results summarized in Table II show the in vivo bronchodilator activity of the VIP analogs in comparison to native VIP.

Row | Structure (SMILES) | EC50 [1] [pM] | Bronchodilator activity of VIP analogs in guinea pigs, ED50 (guinea pigs) [μg]
1 | CCCC[C@H](NC(=O)[C@H](CCC(N)=O)NC(=O)[C@H](CCCCN)NC(=O)[C@H](CCCNC(=N)N)NC(=O)[C@H](CC(C)C)NC(=O)[C@H](CCCCN)NC(=O)[C@@H](NC(=O)[C@H](Cc1ccc(O)cc1)NC(=O)[C@H](CC(N)=O)NC(=O)[C@H](CCC(=O)O)NC(=O)[C@@H](NC(=O)[C@H](Cc1ccccc1)NC(=O)[C@@H](NC(=O)[C@H](C)NC(=O)[C@H](CC(=O)O)NC(=O)[C@H](C)NC(=O)[C@H](Cc1c[nH]cn1)NC(C)=O)C(C)C)[C@@H](C)O)[C@@H](C)O)C(=O)N[C@@H](C)C(=O)N[C@@H](C)C(=O)N[C@@H](CCCCN)C(=O)N[C@H]1CCCCNC(=O)C[C@@H](C(=O)N[C@@H](CC(C)C)C(=O)N[C@@H](CCCCN)C(=O)N[C@@H](CCCCN)C(=O)N[C@@H](C)C(=O)N[C@@H](C)C(=O)N[C@@H](C)C(N)=O)NC(=O)[C@H](CC(N)=O)NC(=O)[C@H](CC(C)C)NC(=O)[C@H](Cc2ccc(O)cc2)NC1=O [SEQ ID NO:43, Ac-[Ala^2,Glu^8,Lys^12,Nle^17,Ala^19,Asp^25,Leu^26,Lys^27,28,Ala^29-31]-VIP cyclo (Lys^21 →Asp^25)] (Ac-HADAVFTENYTKLRKQ[Nle]AAKKYLNDLKKAAA-NH2; lactam 21-25) | 550 | 0.14
2 | CCCC[C@H](NC(=O)[C@H](CCC(N)=O)NC(=O)[C@H](CCCCN)NC(=O)[C@H](CCCNC(=N)N)NC(=O)[C@H](CC(C)C)NC(=O)[C@H](CCCCN)NC(=O)[C@@H](NC(=O)[C@H](Cc1ccc(O)cc1)NC(=O)[C@H](CC(N)=O)NC(=O)[C@H](CCC(=O)O)NC(=O)[C@@H](NC(=O)[C@H](Cc1ccc(F)cc1)NC(=O)[C@@H](NC(=O)[C@H](C)NC(=O)[C@H](CC(=O)O)NC(=O)[C@H](CO)NC(=O)[C@H](Cc1c[nH]cn1)NC(C)=O)C(C)C)[C@@H](C)O)[C@@H](C)O)C(=O)N[C@@H](C)C(=O)N[C@@H](C)C(=O)N[C@@H](CCCCN)C(=O)N[C@H]1CCCCNC(=O)C[C@@H](C(=O)N[C@@H](CC(C)C)C(=O)N[C@@H](CCCCN)C(=O)N[C@@H](CCCCN)C(N)=O)NC(=O)[C@H](CC(N)=O)NC(=O)[C@H](CC(C)C)NC(=O)[C@H](Cc2ccc(O)cc2)NC1=O [SEQ ID NO:45, Ac-[p-F-Phe^6,Glu^8,Lys^12,Nle^17,Ala^19,Asp^25,Leu^26,Lys^27,28]-VIP cyclo (Lys^21 →Asp^25)] (Ac-HSDAV[Phe(4-F)]TENYTKLRKQ[Nle]AAKKYLNDLKK-NH2; lactam 21-25) | 470 | 0.026
3 | CCCC[C@H](NC(=O)[C@H](CCC(N)=O)NC(=O)[C@H](CCCCN)NC(=O)[C@H](CCCNC(=N)N)NC(=O)[C@H](CC(C)C)NC(=O)[C@H](CCCCN)NC(=O)[C@@H](NC(=O)[C@H](Cc1ccc(OC)cc1)NC(=O)[C@H](CC(N)=O)NC(=O)[C@H](CCC(=O)O)NC(=O)[C@@H](NC(=O)[C@H](Cc1ccccc1)NC(=O)[C@@H](NC(=O)[C@H](C)NC(=O)[C@H](CC(=O)O)NC(=O)[C@H](CO)NC(=O)[C@H](Cc1c[nH]cn1)NC(C)=O)C(C)C)[C@@H](C)O)[C@@H](C)O)C(=O)N[C@@H](C)C(=O)N[C@@H](C)C(=O)N[C@@H](CCCCN)C(=O)N[C@H]1CCCCNC(=O)C[C@@H](C(=O)N[C@@H](CC(C)C)C(=O)N[C@@H](CCCCN)C(=O)N[C@@H](CCCCN)C(N)=O)NC(=O)[C@H](CC(N)=O)NC(=O)[C@H](CC(C)C)NC(=O)[C@H](Cc2ccc(O)cc2)NC1=O [SEQ ID NO:48, Ac-[Glu^8,O-Me-Tyr^10,Lys^12,Nle^17,Ala^19,Asp^25,Leu^26, Lys^27,28]-VIP cyclo (Lys^21 →Asp^25)] (Ac-HSDAVFTENY(Me)TKLRKQ[Nle]AAKKYLNDLKK-NH2; lactam 21-25) | 410 | 0.094
4 | CCCC[C@H](NC(=O)[C@H](CCC(N)=O)NC(=O)[C@H](CCCCN)NC(=O)[C@H](CCCNC(=N)N)NC(=O)[C@H](CC(C)C)NC(=O)[C@H](CCCCN)NC(=O)[C@@H](NC(=O)[C@H](Cc1ccc(O)cc1)NC(=O)[C@H](CC(N)=O)NC(=O)[C@H](CC(=O)O)NC(=O)[C@@H](NC(=O)[C@H](Cc1ccc(F)cc1)NC(=O)[C@@H](NC(=O)[C@H](C)NC(=O)[C@H](CC(=O)O)NC(=O)[C@H](CO)NC(=O)[C@H](Cc1c[nH]cn1)NC(C)=O)C(C)C)[C@@H](C)O)[C@@H](C)O)C(=O)N[C@@H](C)C(=O)N[C@@H](C)C(=O)N[C@@H](CCCCN)C(=O)N[C@H]1CCCCNC(=O)C[C@@H](C(=O)N[C@H](C(=O)N[C@@H](CC(C)C)C(=O)N[C@H](C(N)=O)[C@@H](C)O)C(C)C)NC(=O)[C@H](CC(N)=O)NC(=O)[C@H](CC(C)C)NC(=O)[C@H](Cc2ccc(O)cc2)NC1=O [SEQ ID NO:49, Ac-[p-F-Phe^6,Lys^12,Nle^17,Ala^19,Asp^25,Val^26,Thr^28]-VIP cyclo (Lys^21 →Asp^25)] (Ac-HSDAV[Phe(4-F)]TDNYTKLRKQ[Nle]AAKKYLNDVLT-NH2; lactam 21-25) | 390 | 0.26

The next molecules have a lower EC50 [1] than those just listed; values first:

Row | EC50 [1] [pM] | Structure (SMILES) | Bronchodilator activity of VIP analogs in guinea pigs, ED50 (guinea pigs) [μg]
5 | 360 | CCCC[C@H](NC(=O)[C@H](CCC(N)=O)NC(=O)[C@H](CCCCN)NC(=O)[C@H](CCCNC(=N)N)NC(=O)[C@H](CC(C)C)NC(=O)[C@H](CCCCN)NC(=O)[C@@H](NC(=O)[C@H](Cc1ccc(O)cc1)NC(=O)[C@H](CC(N)=O)NC(=O)[C@H](CCC(=O)O)NC(=O)[C@@H](NC(=O)[C@H](Cc1ccccc1)NC(=O)[C@@H](NC(=O)[C@H](C)NC(=O)[C@H](CC(=O)O)NC(=O)[C@H](CO)NC(=O)[C@H](C)N(C)C(C)=O)C(C)C)[C@@H](C)O)[C@@H](C)O)C(=O)N[C@@H](C)C(=O)N[C@@H](C)C(=O)N[C@@H](CCCCN)C(=O)N[C@H]1CCCCNC(=O)C[C@@H](C(=O)N[C@@H](CC(C)C)C(=O)N[C@@H](CCCCN)C(=O)N[C@@H](CCCCN)C(N)=O)NC(=O)[C@H](CC(N)=O)NC(=O)[C@H](CC(C)C)NC(=O)[C@H](Cc2ccc(O)cc2)NC1=O [SEQ ID NO:44, Ac-[N-Me-Ala^1,Glu^8,Lys^12,Nle^17,Ala^19,Asp^25,Leu^26,Lys^27,28]-VIP cyclo (Lys^21 →Asp^25)] (Ac-[NMeA]SDAVFTENYTKLRKQ[Nle]AAKKYLNDLKK-NH2; lactam 21-25) | 0.097
6 | 320 | CCCC[C@H](NC(=O)[C@H](CCC(N)=O)NC(=O)[C@H](CCCCN)NC(=O)[C@H](CCCNC(=N)N)NC(=O)[C@H](CC(C)C)NC(=O)[C@H](CCCCN)NC(=O)[C@@H](NC(=O)[C@H](Cc1ccc(N)cc1)NC(=O)[C@H](CC(N)=O)NC(=O)[C@H](CCC(=O)O)NC(=O)[C@@H](NC(=O)[C@H](Cc1ccccc1)NC(=O)[C@@H](NC(=O)[C@H](C)NC(=O)[C@H](CC(=O)O)NC(=O)[C@H](CO)NC(=O)[C@H](Cc1c[nH]cn1)NC(C)=O)C(C)C)[C@@H](C)O)[C@@H](C)O)C(=O)N[C@@H](C)C(=O)N[C@@H](C)C(=O)N[C@@H](CCCCN)C(=O)N[C@H]1CCCCNC(=O)C[C@@H](C(=O)N[C@@H](CC(C)C)C(=O)N[C@@H](CCCCN)C(=O)N[C@@H](CCCCN)C(N)=O)NC(=O)[C@H](CC(N)=O)NC(=O)[C@H](CC(C)C)NC(=O)[C@H](Cc2ccc(O)cc2)NC1=O [SEQ ID NO:47, Ac-[Glu^8,p-NH2 -Phe^10,Lys^12,Nle^17,Ala^19,Asp^25,Leu^26,Lys^27,28]-VIP cyclo (Lys^21 →Asp^25)] (Ac-HSDAVFTEN[Phe(4-NH2)]TKLRKQ[Nle]AAKKYLNDLKK-NH2; lactam 21-25) | 0.075
7 | 260 | CCCC[C@H](NC(=O)[C@H](CCC(N)=O)NC(=O)[C@H](CCCCN)NC(=O)[C@H](CCCNC(=N)N)NC(=O)[C@H](CC(C)C)NC(=O)[C@H](CCCCN)NC(=O)[C@@H](NC(=O)[C@H](Cc1ccc(O)cc1)NC(=O)[C@H](CC(N)=O)NC(=O)[C@H](CCC(=O)O)NC(=O)[C@@H](NC(=O)[C@H](Cc1cccc2ccccc12)NC(=O)[C@@H](NC(=O)[C@H](C)NC(=O)[C@H](CC(=O)O)NC(=O)[C@H](CO)NC(=O)[C@H](Cc1c[nH]cn1)NC(C)=O)C(C)C)[C@@H](C)O)[C@@H](C)O)C(=O)N[C@@H](C)C(=O)N[C@@H](C)C(=O)N[C@@H](CCCCN)C(=O)N[C@H]1CCCCNC(=O)C[C@@H](C(=O)N[C@@H](CC(C)C)C(=O)N[C@@H](CCCCN)C(=O)N[C@@H](CCCCN)C(N)=O)NC(=O)[C@H](CC(N)=O)NC(=O)[C@H](CC(C)C)NC(=O)[C@H](Cc2ccc(O)cc2)NC1=O [SEQ ID NO:46, Ac-[1-Nal^6,Glu^8,Lys^12,Nle^17,Ala^19,Asp^25,Leu^26,Lys^27,28]-VIP cyclo (Lys^21 →Asp^25)] (Ac-HSDAV[1Nal]TENYTKLRKQ[Nle]AAKKYLNDLKK-NH2; lactam 21-25) | 0.036
